Earlier results as cited in US20210137911A1, “NOVEL CHRONOTHERAPY BASED ON CIRCADIAN RHYTHMS” (THE TRUSTEES OF THE UNIVERSITY OF PENNSYLVANIA, priority 2014, published 2021).
Positions of bridges follow the written chain, without caps; N, C: chain ends. Non-standard residues stand in square brackets, D forms with d. Residues, ends and D or L forms follow the SMILES beside them. hArg = N=C(N)NCCCC[C@H](N)C(=O)O; Mpa = O=C(O)CCS

Conditions: half-life of therapeutic compound as listed in Table 1; cited from earlier work

Row | SMILES | ½ Life [h]
1 | O=[N+]([O-])[O-].O=[N+]([O-])[O-].O=[N+]([O-])[O-].[Ga+3] [Gallium nitrate] | 1
2 | O=C(O)CCCO [Gamma Hydroxybutyric Acid] | 0.5
3 | CC(=O)[C@H]1CC[C@H]2[C@@H]3CC[C@H]4C[C@](C)(O)CC[C@]4(C)[C@H]3CC[C@]12C [Ganaxolone] | 1.3
4 | Nc1ccn([C@@H]2O[C@H](CO)[C@@H](O)C2(F)F)c(=O)n1 [Gemcitabine] | 0.7
5 | Cc1ccc(C)c(OCCCC(C)(C)C(=O)O)c1 [Gemfibrozil, reference compound] | 1.5
6 | CCC1=C(C)CN(C(=O)NCCc2ccc(S(=O)(=O)NC(=O)N[C@H]3CC[C@H](C)CC3)cc2)C1=O [Glimepiride] | 5
7 | Cc1cnc(C(=O)NCCc2ccc(S(=O)(=O)NC(=O)NC3CCCCC3)cc2)cn1 [Glipizide] | 2
8 | COc1ccc(Cl)cc1C(=O)NCCc1ccc(S(=O)(=O)NC(=O)NC2CCCCC2)cc1 [Glyburide] | 1.4
9 | COCCOc1cnc(NS(=O)(=O)c2ccccc2)nc1 [Glycodiazine] | 4
10 | C[N+]1(C)CCC(OC(=O)C(O)(c2ccccc2)C2CCCC2)C1 (centres unmarked) [Glycopyrrolate] | 0.6
11 | CC(C)C[C@H](NC(=O)[C@@H](COC(C)(C)C)NC(=O)[C@H](Cc1ccc(O)cc1)NC(=O)[C@H](CO)NC(=O)[C@H](Cc1c[nH]c2ccccc12)NC(=O)[C@H](Cc1cnc[nH]1)NC(=O)[C@@H]1CCC(=O)N1)C(=O)N[C@@H](CCCNC(=N)N)C(=O)N1CCC[C@H]1C(=O)NNC(N)=O [Goserelin] | 4
12 | CC(=O)Oc1ccc2c3c1O[C@H]1[C@@H](OC(C)=O)C=C[C@H]4[C@@H](C2)N(C)CC[C@@]341 [Heroin] | 0.166
13 | NNc1nncc2ccccc12 [Hydralazine] | 3
14 | NC(=O)NO [Hydroxyurea] | 3
15 | CC#CCC(C)[C@H](O)/C=C/[C@@H]1[C@H]2C/C(=C/CCCC(=O)O)C[C@H]2C[C@H]1O (some centres unmarked) [Iloprost] | 0.333
16 | CC(C)[N+]1(C)[C@@H]2CC[C@H]1CC(OC(=O)C(CO)c1ccccc1)C2.[Br-] (some centres unmarked) [Ipratropium bromide] | 2
17 | NNC(=O)c1ccncc1 [Isoniazid] | 0.5
18 | O=[N+]([O-])O[C@H]1CO[C@H]2[C@@H]1OC[C@H]2O[N+](=O)[O-] [Isosorbide Dinitrate] | 1
19 | O=[N+]([O-])O[C@@H]1CO[C@H]2[C@@H]1OC[C@@H]2O [Isosorbide Mononitrate] | 5
20 | CC(=O)N1CCN(c2ccc(OCC3COC(Cn4ccnc4)(c4ccc(Cl)cc4Cl)O3)cc2)CC1 (centres unmarked) [Ketoconazole] | 2
21 | O=C(c1ccccc1)c1ccc2n1CCC2C(=O)O (centres unmarked) [Ketorolac] | 2.5

Same assay, conditions: half-life of top selling therapeutic compounds (Table 1); cited from earlier work

Row | SMILES | ½ Life [h]
22 | CCCCC[C@H](O)/C=C/[C@H]1[C@H](O)CC(=O)[C@@H]1C/C=C\CCCC(=O)O [Dinoprostone] | 0.0833
23 | OC(CCCN1CCCCC1)(c1ccccc1)c1ccccc1 [Diphenidol] | 4
24 | OCCN(CCO)c1nc(N2CCCCC2)c2nc(N(CCO)CCO)nc(N3CCCCC3)c2n1 [Dipyridamole] | 0.66
25 | CC(CCc1ccc(O)cc1)NCCc1ccc(O)c(O)c1 (centres unmarked) [Dobutamine] | 0.033
26 | NCCc1ccc(O)c(O)c1 [Dopamine] | 0.033
27 | O=C(CCCN1CC=C(n2c(=O)[nH]c3ccccc32)CC1)c1ccc(F)cc1 [Droperidol] | 1.4
28 | N[C@H](C(=O)O)[C@H](O)c1ccc(O)c(O)c1 [Droxidopa] | 2
29 | CC(=O)[C@H]1CC[C@H]2[C@@H]3C=CC4=CC(=O)CC[C@@]4(C)[C@@H]3CC[C@]12C [Dydrogesterone] | 5
30 | Cn1c(=O)c2c(ncn2CC(O)CO)n(C)c1=O (centres unmarked) [Dyphylline] | 2
31 | CN1CCC[C@@H]1Cc1c[nH]c2ccc(CCS(=O)(=O)c3ccccc3)cc12 [Eletriptan] | 4
32 | CCOC(=O)[C@H](CCc1ccccc1)N[C@@H](C)C(=O)N1CCC[C@H]1C(=O)O [Enalapril, reference compound] | 2
33 | COc1ccc(C(=O)Nc2ccccc2CCC2CCCCN2C)cc1 (centres unmarked) [Encainide] | 1
34 | CCn1cc(C(=O)O)c(=O)c2cc(F)c(N3CCNCC3)nc21 [Enoxacin] | 3
35 | CSc1ccc(C(=O)c2[nH]c(=O)[nH]c2C)cc1 [Enoximone] | 4
36 | CNC[C@H](O)c1ccc(O)c(O)c1 [Epinephrine] | 0.033
37 | COc1cccc2c1C(=O)c1c(O)c3c(c(O)c1C2=O)C[C@@](O)(C(=O)CO)C[C@@H]3O[C@H]1C[C@H](N)[C@@H](O)[C@H](C)O1 [Epirubicin] | 3
38 | COC(=O)[C@@H]1CC2=CC(=O)CC[C@]2(C)[C@@]23O[C@@H]2C[C@@]2(C)[C@@H](CC[C@@]24CCC(=O)O4)[C@H]13 [Eplerenone] | 4
39 | CCCCc1ncc(/C=C(\Cc2cccs2)C(=O)O)n1Cc1ccc(C(=O)O)cc1 [Eprosartan] | 5
40 | C[C@@H](CO)NC(=O)[C@@H]1C=C2c3cccc4[nH]cc(c34)C[C@H]2N(C)C1 [Ergonovine] | 1

Row | SMILES | ½ Life [h]
41 | COC(=O)CCc1ccc(OCC(O)CNC(C)C)cc1 (centres unmarked) [Esmolol] | 2
42 | COc1ccc2nc([S@@+]([O-])Cc3ncc(C)c(OC)c3C)[nH]c2c1 [Esomeprazole] | 1
43 | CCc1cc(C(N)=S)ccn1 [Ethionamide] | 2
44 | CCN1C(=O)NC(c2ccccc2)C1=O (centres unmarked) [Ethotoin] | 3
45 | CCOc1ccc2nc(S(N)(=O)=O)sc2c1 [Ethoxzolamide] | 2.5
46 | CC(O)(P(=O)(O)O)P(=O)(O)O [Etidronic acid] | 1
47 | COc1cc([C@@H]2c3cc4c(cc3[C@@H](O[C@@H]3O[C@@H]5CO[C@@H](C)O[C@H]5[C@H](O)[C@H]3O)[C@H]3COC(=O)[C@H]23)OCO4)cc(OC)c1O [Etoposide] | 4
48 | CC(C(=O)O)c1cccc(Oc2ccccc2)c1 (centres unmarked) [Fenoprofen] | 3
49 | CC(C)(C)NC(=O)[C@H]1CC[C@H]2[C@@H]3CC[C@H]4NC(=O)C=C[C@]4(C)[C@H]3CC[C@]12C [Finasteride] | 4.5
50 | Nc1nc(=O)[nH]cc1F [Flucytosine] | 2.4
51 | C[C@]12CCC(=O)C=C1CC[C@H]1[C@@H]3CC[C@](O)(C(=O)CO)[C@@]3(C)C[C@H](O)[C@@]12F [Fludrocortisone] | 3.5
52 | CCOC(=O)c1ncn2c1CN(C)C(=O)c1cc(F)ccc1-2 [Flumazenil] | 4
53 | CC1(C)O[C@@H]2C[C@H]3[C@@H]4C[C@H](F)C5=CC(=O)C=C[C@]5(C)[C@H]4[C@@H](O)C[C@]3(C)[C@]2(C(=O)CO)O1 [Flunisolide] | 1.8
54 | CC1(C)O[C@@H]2C[C@H]3[C@@H]4C[C@H](F)C5=CC(=O)C=C[C@]5(C)[C@@]4(F)[C@@H](O)C[C@]3(C)[C@]2(C(=O)CO)O1 [Fluocinolone Acetonide] | 1.3
55 | O=c1[nH]cc(F)c(=O)[nH]1 [Fluorouracil] | 0.166
56 | CCN(CC)CCN1C(=O)CN=C(c2ccccc2F)c2cc(Cl)ccc21 [Flurazepam] | 2.3
57 | CC(C(=O)O)c1ccc(-c2ccccc2)c(F)c1 (centres unmarked) [Flurbiprofen] | 4.7
58 | CC(C)n1c(/C=C/C(O)CC(O)CC(=O)O)c(-c2ccc(F)cc2)c2ccccc21 (centres unmarked) [Fluvastatin, reference compound] | 3
59 | O=C1NC(c2ccccc2)(c2ccccc2)C(=O)N1COP(=O)(O)O [Fosphenytoin] | 0.25

Same assay, conditions: in vivo; cited from earlier work

Row | SMILES | ½ Life [h]
60 | CN1C(=O)CN=C(c2ccccc2)c2cc(Cl)ccc21 [Diazepam] | 1
61 | O=C(O)Cc1ccccc1Nc1c(Cl)cccc1Cl [Diclofenac] | 2
62 | CCCCCc1cc(O)c2c(c1)OC(C)(C)[C@@H]1CCC(C)=C[C@@H]21 [Dronabinol] | 4
63 | N=C(N)NCCCC[C@@H]1NC(=O)CCSSC[C@@H](C(N)=O)NC(=O)[C@@H]2CCCN2C(=O)[C@H](Cc2c[nH]c3ccccc23)NC(=O)[C@H](CC(=O)O)NC(=O)CNC1=O [Eptifibatide] ([Mpa][hArg]GDWPC-NH2; disulfide 1-7) | 2.5
64 | CN1C[C@H](C(=O)N[C@]2(C)O[C@@]3(O)[C@@H]4CCCN4C(=O)[C@H](Cc4ccccc4)N3C2=O)C=C2c3cccc4[nH]cc(c34)C[C@H]21 [Ergotamine] | 2
65 | C#CC1(OC(N)=O)CCCCC1 [Ethinamate] | 2.5
66 | NCC1(CC(=O)O)CCCCC1 [Gabapentin] | 5
67 | CC(C)C[C@H](NC(=O)CNC(=O)[C@H](Cc1ccc(O)cc1)NC(=O)[C@H](CO)NC(=O)[C@H](Cc1c[nH]c2ccccc12)NC(=O)[C@H](Cc1cnc[nH]1)NC(=O)[C@@H]1CCC(=O)N1)C(=O)N[C@@H](CCCNC(=N)N)C(=O)N1CCC[C@H]1C(=O)NCC(N)=O [Gonadorelin] | 0.033
68 | NS(=O)(=O)c1cc2c(cc1Cl)NCNS2(=O)=O [Hydrocholorthiazide, reference compound] | 5.6
69 | COc1ccc2c3c1O[C@H]1C(=O)CC[C@H]4[C@@H](C2)N(C)CC[C@]314 [Hydrocodone] | 1.25
70 | NC(N)=NCCC[C@@H](N)C(=O)N[C@@H](CCCN=C(N)N)C(=O)N1CCC[C@H]1C(=O)N1C[C@H](O)C[C@H]1C(=O)NCC(=O)N[C@@H](Cc1cccs1)C(=O)N[C@@H](CO)C(=O)N1Cc2ccccc2C[C@@H]1C(=O)N1[C@H](C(=O)N[C@@H](CCCN=C(N)N)C(=O)O)C[C@@H]2CCCC[C@@H]21 [Icatibant] | 1.4
71 | CNC1(c2ccccc2Cl)CCCCC1=O (centres unmarked) [Ketamine] | 2.5
72 | CCC(=O)C1(c2cccc(O)c2)CCN(C)CC1 [Ketobemidone] | 2.42
73 | N[C@@H](Cc1ccc(O)c(O)c1)C(=O)O [L-DOPA] | 0.833

Same assay, conditions: see Table 1; cited from earlier work

Row | SMILES | minimum reported half-life | half-life
74 | CCOC(=O)[C@H](CCc1ccccc1)N[C@@H](C)C(=O)N1CCC[C@H]1C(=O)O [Enalapril, reference compound] | 2 h | –
75 | Cc1ccc(C)c(OCCCC(C)(C)C(=O)O)c1 [Gemfibrozil, reference compound] | one and a half | one and a half
76 | NS(=O)(=O)c1cc2c(cc1Cl)NCNS2(=O)=O [Hydrocholorthiazide, reference compound] | – | 5.6 h
